In US20250243160A1, “INDOLE DERIVATIVES FOR TARGETING AUTOPHAGY” (Automera PTE. LTD, priority 2024, published 2025):

Columns and labels:
[1] = molecular target: Recombinant p62 protein (Homo sapiens, UniProt Q13501); assay: Surface plasmon resonance (SPR) compound binding to p62; settings: 15° C
Description: Recombinant p62 protein was buffer exchanged into Biacore SPR running buffer (Cytiva 100671) using the Slide-A-Lyzer Mini Dialysis system 7K MWCO (Thermo Fisher Scientific, Cat no. 69560). The final protein concentration was determined using the Nanodrop One spectrophotometer (Thermo Fisher Scientific, cat no. ND-ONE-W), with calibration for the dialysis buffer.
The prepared protein was diluted in sodium acetate buffer (NaAc, pH 5.5, Cytiva) to concentrations ranging from approximately 0.25-40 μg/mL. Post-immobilization, the protein required approximately 16 hours of equilibration in running buffer supplemented with 1% DMSO at 15° C. to ensure adequate surface equilibration and protein reorganization.
All SPR experiments were conducted at a constant temperature of 15° C. The SPR chip surface was activated using EDC/NHS for a contact time of 6-10 min at a flow rate of 10 μL/min. This was followed by protein immobilization for 2100 seconds and ethanolamine capping for 420 seconds, both at the same flow rate. Immediately after immobilization, the NH2-REEE peptide was analyzed in Single Cycle Kinetics mode (SCK) to verify surface activity, ensuring it binds the sample with the published affinity (˜20 μM by SPR).
For general compound binding studies, experiments were performed at 15° C. using a running buffer composed of 10 mM HEPES, 150 mM NaCl, 1 mM DTT, 0.05% Tween 20, and 1% DMSO at pH 7.4. The test compound was initially prepared at a 20 mM concentration in DMSO and subsequently titrated in 2-fold dilutions. For each assay, 2 μL of the compound was mixed with 198 μL of the running buffer, and the mixture was thoroughly pipetted approximately 15 times for homogenization.
A series of blank injections (0 μM concentration) were included for double referencing, with at least 8 or 16 per plate depending on the format. Typical injection parameters were 120 seconds for association and 180 seconds for dissociation at a flow rate of […]. A four-point solvent correction was prepared with DMSO concentrations ranging from 2% to 0.5% in the buffer. Post each compound injection, the system's needles were washed with 50% DMSO.
Analysis of the SPR data was conducted using the Cytiva Evaluation software. The binding levels at the late time-point of each interaction were corrected for reference, then normalized to percentage bound values to account for variations in immobilization levels, protein molecular weight, and compound molecular weight.
Compound binding studies were carried out according to experimental procedures above and SPR % occupancy was determined and summarized in Table 7.

[2] = molecular target: T1, p62 oligomers (Homo sapiens, UniProt Q13501); assay: p62 oligomerization assay by Western blot in HeLa cells; assay type: cell-based; settings: 24 hours treatment, relative to vehicle control (DMSO)
T1 construct: endogenous in cells; host or cells: HeLa
Description: (§1) HeLa cells were seeded in 6-well plates (700,000 cells) and allowed to adhere overnight. Media was replaced one hour before administering either vehicle (DMSO) or test compounds. After 24 hours of treatment, the media was discarded, and cells were rinsed once with ice-cold 1×PBS before detached from plates with ice-cold RIPA Lysis and Extraction Buffer (Thermo Fisher Scientific) which was supplemented with protease and phosphatase inhibitors. The resulting cell suspensions were transferred to pre-chilled microcentrifuge tubes, incubated on ice for 20 min with intermittent mixing and then centrifuged at 12,000 rpm for 20 min at 4° C. The supernatants were then aspirated slowly and transferred into new tubes kept on ice. The protein concentration in the samples was determined using BCA kit (Thermo Fisher Scientific) as per manufacturer's instructions.
(§2) For the p62 oligomerization and LC3 lipidation assays, cell lysates were prepared using RIPA buffer supplemented with 2% SDS and benzonase (Sigma). The lysates were then combined with 4× Laemmli protein sample buffer (Bio-Rad), heated at 70° C. for 10 min and subjected to a brief centrifugation of 10-15 seconds.
(§3) For p62 oligomerization and LC3 lipidation assays, lysates containing 30 μg of protein and for BRD4 and FKBP12(F36V) degradation assays, lysates containing 20 μg of protein, were loaded slowly into the wells of 4-20% gradient Tris-glycine gels (Bio-Rad). The gels were run at 100V until completion and transferred onto PVDF membranes. Membranes were blocked using 5% milk in TBS-Tween (0.1%) buffer at room temperature for 1 hour. The membranes were incubated with primary antibody in 5% milk-TBST with shaking, overnight at 4° C. The primary antibodies used were: p62 (Novus Biologicals 2C11, H00008878-MO1), LC3A/B (Cell Signalling Technology D3U4C, 12741S), FKBP12 (Abcam ab24373), BRD4 (Cell Signalling Technology E2A7X, 13440S), GAPDH (Cell Signalling Technology D4C6R, 97166S), and β-Actin (Proteintech 66009-1-Ig). Following primary antibody incubation, membranes were washed thrice with TBST 10 min before and after incubation with secondary-HRP conjugated antibody in 5% milk-TBST for 1 hour at room temperature. The secondary antibodies used were: Anti-Mouse IgG HRP Conjugate (Promega W4021B) and Anti-Rabbit IgG HRP Conjugate (Promega W4011). For the p62 oligomerization assay, the total protein levels were assessed using Ponceau staining (Thermo Fisher Scientific) of PVDF membrane as per recommendation by manufacturer's guidelines.
(§4) Imaging was acquired using SuperSignal™ West Pico PLUS Chemiluminescent Substrate (Thermo Fisher Scientific) with iBright Invitrogen FL100 imaging system. Band signal intensity, reflective of protein concentrations, were quantified using Invitrogen™ iBright™ Analysis and Image J software.
HeLa cells were treated with compounds for 24 hours to evaluate the effect of these compounds on p62 oligomerisation activity. The resulting changes in levels of p62 oligomers were assessed by Western blotting, as described in experimental procedures. The fold change of p62 oligomer levels induced by compound treatment relative to vehicle control (DMSO) was determined and summarized in Table 8. Specifically, FIGS. 2A-C show Western blot images and their corresponding quantification showing the levels of high molecular weight (100-200 kDa) p62 oligomers by 24 hours compound treatments at listed concentrations, relative to vehicle control (DMSO) in HeLa cells. Protein loading consistencies was assessed by Ponceau staining (not shown).

[3] = system: LC3 protein; assay: LC3 lipidation (LC3-II/LC3-I) assay by Western blot in HeLa cells; assay type: cell-based; design: key: ++: >2-fold change in LC3-II/LC3-I relative to DMSO control; +: <2-fold change in LC3-II/LC3-I relative to DMSO control; −: no change in LC3-II/LC3-I relative to DMSO control; settings: 24 hours treatment, relative to vehicle control (DMSO)
Description: as §1, §2, §3, §4
HeLa cells were treated with compounds for 24 hours to evaluate the effect of these compounds on LC3-II/LC3-I levels, a measure of autophagy activation. The changes in levels of LC3-I, LC3-II and […] (loading control) were assessed by Western blotting, as described in experimental procedures. The fold increase of LC3-II/LC3-I levels induced by compound treatment relative to vehicle control (DMSO) was determined and summarized in Table 9. Specifically, FIGS. 3A-C show Western blot images and their corresponding quantification showing the lipidation levels of LC3 protein (LC3-II/LC3-I) by 24 hours compound treatments at listed concentrations, relative to vehicle control (DMSO) in HeLa cells.

Recombinant p62 protein, sequence (Q13501 whole entry, species assumed): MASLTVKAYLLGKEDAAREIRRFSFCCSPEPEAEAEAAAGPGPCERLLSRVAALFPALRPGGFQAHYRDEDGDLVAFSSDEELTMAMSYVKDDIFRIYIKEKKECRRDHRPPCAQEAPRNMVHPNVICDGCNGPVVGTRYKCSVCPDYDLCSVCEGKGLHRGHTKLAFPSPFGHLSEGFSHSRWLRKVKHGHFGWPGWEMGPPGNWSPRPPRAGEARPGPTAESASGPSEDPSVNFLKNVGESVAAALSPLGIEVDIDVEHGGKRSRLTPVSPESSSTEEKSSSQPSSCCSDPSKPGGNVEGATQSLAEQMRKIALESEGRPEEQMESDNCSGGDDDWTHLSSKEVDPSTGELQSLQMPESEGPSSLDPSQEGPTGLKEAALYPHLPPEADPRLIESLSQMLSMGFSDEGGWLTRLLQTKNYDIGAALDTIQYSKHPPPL
T1 sequence (Q13501 whole entry): as the sequence (Q13501 whole entry, species assumed) above

Structure (SMILES) | receptor occupancy at 100 µM [1] [%] | p62 oligomerization (fold change of p62 oligomer levels) [2] | LC3 lipidation (fold increase of LC3-II/LC3-I levels) [3]
CC(C)NCC(O)COc1cccc2c1ccn2Cc1ccccc1 (stereo not drawn) [Compound 6, 1-((1-benzyl-1H-indol-4-yl)oxy)-3-(isopropylamino)propan-2-ol] | 30 to 70 | ++ (>2-fold change relative to DMSO control) | + (<2-fold change in LC3-II/LC3-I relative to DMSO control)
Cc1cn(Cc2ccccc2)c2cccc(CNCCO)c12 [Compound 37, 2-(((1-benzyl-3-methyl-1H-indol-4-yl)methyl)amino)ethan-1-ol] | 30 to 70 | ++ (>2-fold change relative to DMSO control) | + (<2-fold change in LC3-II/LC3-I relative to DMSO control)
OCCNCc1cccc2c1ccn2-c1ccccc1 [Compound 9, 2-(((1-phenyl-1H-indol-4-yl)methyl)amino)ethan-1-ol] | > 70 | ++ (>2-fold change relative to DMSO control) | + (<2-fold change in LC3-II/LC3-I relative to DMSO control)
Cc1cn(CC2CCOCC2)c2cccc(CNCCO)c12 [Compound 49] | 30 to 70 | + (<2-fold change relative to DMSO control) | −
OCCNCc1cccc2c1ccn2CCC1CCNCC1 [Compound 26] | 30 to 70 | ++ (>2-fold change relative to DMSO control) | + (<2-fold change in LC3-II/LC3-I relative to DMSO control)
OCCNCc1cc(F)cc2c1ccn2Cc1ccccc1 [Compound 31] | > 70 | ++ (>2-fold change relative to DMSO control) | + (<2-fold change in LC3-II/LC3-I relative to DMSO control)
OCCNCc1ccc(Cl)c2c1ccn2Cc1ccccc1 [Compound 35] | > 70 | ++ (>2-fold change relative to DMSO control) | ++ (>2-fold change in LC3-II/LC3-I relative to DMSO control)
OCCNCc1cccc2c1ccn2Cc1ccc(F)cc1 [Compound 10] | > 70 | ++ (>2-fold change relative to DMSO control) | + (<2-fold change in LC3-II/LC3-I relative to DMSO control)
CC(C)(C)OC(=O)N1Cc2ccc(Cn3ccc4c(CNCCO)cccc43)cc2C1 [Compound 27] | > 70 | ++ (>2-fold change relative to DMSO control) | + (<2-fold change in LC3-II/LC3-I relative to DMSO control)
OCCNCc1cccc2c1ccn2Cc1c[nH]cn1 [Compound 21, 2-(((1-((1H-imidazol-4-yl)methyl)-1H-indol-4-yl)methyl)amino)ethan-1-ol] | 30 to 70 | + (<2-fold change relative to DMSO control) | −
OCCNCc1cccc2c1ccn2Cc1ccc(Cl)cc1 [Compound 11] | > 70 | ++ (>2-fold change relative to DMSO control) | ++ (>2-fold change in LC3-II/LC3-I relative to DMSO control)
Cc1cn(Cc2ccc(F)cc2)c2cccc(CNCCO)c12 [Compound 48] | 30 to 70 | ++ (>2-fold change relative to DMSO control) | ++ (>2-fold change in LC3-II/LC3-I relative to DMSO control)
OCCNCc1cccc2c1ccn2Cc1cccc(Cl)c1 [Compound 13] | 30 to 70 | ++ (>2-fold change relative to DMSO control) | + (<2-fold change in LC3-II/LC3-I relative to DMSO control)
